# Experimental data: US9629828B2, “Methods of treating traveler's diarrhea and hepatic encephalopathy” (priority 2008, dated 2017)
# Entries after “also recorded” stand apart in the source; their conditions may differ.
# Key:
# [1] = tested on: patients with hepatic encephalopathy; experiment: First study: adverse events, rifaximin 550 mg BID; format: in vivo, human
# From the text: Ninety-one percent of patients in the trial were taking lactulose concomitantly. […] (These include adverse events that may be attributable to the underlying disease.)
# The following includes adverse events occurring at a greater incidence than placebo, regardless of causal relationship to drug exposure.
# A total of 79.9% of subjects (239 of 299) experienced TEAEs during the course of the study.
# [2] = tested on: subjects with a history of recurrent, overt, episodic HE; experiment: Second study: changes in Conn scores and asterixis grades; format: in vivo, human
# From the text: (§1) Normalizing for subject exposure, this represents a hospitalization rate of 0.60 event/PEY. A total of 59 were hospitalized due HE episodes (e.g., HE-caused). Normalizing for subject exposure, this represents an HE-caused hospitalization rate of 0.29 event/PEY. […] All subjects were capable of worsening over time, and 24/266 subjects (9.0%) did so by 1 or 2 grades.
# The last visit for the second study is the last visit recorded for the interim analysis.
# A total of 65.5% of subjects (220 of 337) had no change in Conn score and 21.1% (71 of 337) had improvements in Conn score from baseline to last visit. […] No change from baseline in asterixis grade was reported for 75.2% of subjects (252 of 337), and 17.3% had improvements.
# clinical = settings: human, in vivo
# From the text: Results from the current study were compared with historical data from subjects with normal hepatic function.
# CYP3A4 [3] = target: T1, CYP3A4 (Homo sapiens, UniProt P08684); experiment: In vitro cytochrome P450 inhibition; format: in vitro ADME; settings: 2 to 200 ng/mL
# T1 construct: from tissue; host or cells: human liver fractions
# [4] = tested on: subjects with a history of recurrent, overt, episodic HE; experiment: Second study: hospitalization rates; format: in vivo, human
# From the text: as §1
# [5] = tested on: subjects in remission from hepatic encephalopathy (HE); experiment: First study: asterixis grade (time to any increase, change from baseline); format: in vivo, human; settings: for Probability of no increase in asterixis grade: Kaplan-Meier; for Probability of no increase in asterixis grade / Cumulative number of events (increase in asterixis grade) / Event probability (increase in asterixis grade during the treatment interval) / Number of events (increase in asterixis grade): ITT, N = 140
# Protocol: Asterixis (flapping tremor) was determined with the subject holding both arms and forearms extended with wrists dorsiflexed and fingers open for ≧30 seconds. Asterixis was measured on a continuum of 5 grades, e.g., grades 0 and 4=no abnormal movement vs. almost continuous flapping motions, respectively as shown below:
# Efficacy in regard to asterixis grade was measured as time to any increase from baseline in asterixis grade.
# FIG. 12 illustrates time to any increase from baseline in asterixis grade by treatment group in the ITT population in the first study. Table 21 presents estimates of the proportions of subjects who had any increase in asterixis grade over the course of the Treatment Period and results of statistical analyses. Subjects who discontinued prior to experiencing an increase in asterixis grade and prior to completion of the 6-month treatment period were censored at the time of discontinuation.
# patients with HE = experiment: Rifaximin 1200 mg/day: effect on blood ammonia and HE grade (50 patients); format: in vivo, human; settings: for effect on HE grade: 1200 mg/day; for effect on blood ammonia: 1200 mg/day for 5-10 days
# From the text: Correlation between ammonia reduction over time and HE was examined.
# While discrete blood ammonia concentrations may be variable, serial measurements in individual patients have been associated with HE severity.
# CYP3A4 [6] = experiment: Clinical drug interaction: rifaximin 550 mg TID on oral midazolam
# epithelial cells = experiment: Effects of rifaximin on mammalian epithelial cells; format: cell-based
# [7] = all rifaximin experience, 337 subjects
# [8] = treatment interval 0 to <28 days
# [9] = treatment interval 28 to <56 days
# [10] = treatment interval 56 to <84 days
# [11] = treatment interval 84 to <140 days
# [12] = treatment interval 140 to <168 days
# T1 sequence (P08684 whole entry): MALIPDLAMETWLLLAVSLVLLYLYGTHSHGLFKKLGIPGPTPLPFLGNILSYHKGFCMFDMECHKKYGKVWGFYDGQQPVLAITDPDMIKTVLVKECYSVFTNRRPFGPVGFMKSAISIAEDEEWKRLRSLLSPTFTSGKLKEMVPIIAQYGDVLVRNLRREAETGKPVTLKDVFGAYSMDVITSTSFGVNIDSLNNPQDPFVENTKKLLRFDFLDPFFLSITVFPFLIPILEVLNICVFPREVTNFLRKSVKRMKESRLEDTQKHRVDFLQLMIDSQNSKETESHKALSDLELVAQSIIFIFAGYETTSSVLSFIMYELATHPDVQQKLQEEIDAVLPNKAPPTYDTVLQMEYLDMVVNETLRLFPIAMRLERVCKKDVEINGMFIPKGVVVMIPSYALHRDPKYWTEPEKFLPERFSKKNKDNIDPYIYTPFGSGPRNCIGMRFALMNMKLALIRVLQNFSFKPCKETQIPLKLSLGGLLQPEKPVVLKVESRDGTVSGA
structure (smiles),measurement,setting,value
"CO[C@H]1/C=C/O[C@@]2(C)Oc3c(C)c(O)c4c(O)c(c5c(nc6cc(C)ccn65)c4c3C2=O)NC(=O)/C(C)=C\C=C\[C@H](C)[C@H](O)[C@@H](C)[C@@H](O)[C@@H](C)[C@H](OC(C)=O)[C@@H]1C [rifaximin, (2S,16Z,18E,20S,21S,22R,23R,24R,25 S,26S,27S,28E)-5,6,21,23,25-pentahydroxy-27-methoxy-2,4,11,16,20,22,24,26-octamethyl-2,7-(epoxypentadeca-[1,11,13]trienimino)benzofuro[4,5-e]pyrido[1,2-á]-benzimidazole-1,15(2H)-dione,25-acetate]",Abdominal distension,"[1]; 550 mg BID, N = 140",11 (7.9%) Number (%) of Patients
same,Abdominal pain,"[1]; 550 mg BID, N = 140",12 (8.6%) Number (%) of Patients
same,Abdominal pain upper,"[1]; 550 mg BID, N = 140",9 (6.4%) Number (%) of Patients
same,Anemia,"[1]; 550 mg BID, N = 140",11 (7.9%) Number (%) of Patients
same,Arthralgia,"[1]; 550 mg BID, N = 140",9 (6.4%) Number (%) of Patients
same,Ascites,"[1]; 550 mg BID, N = 140",16 (11.4%) Number (%) of Patients
same,Back pain,"[1]; 550 mg BID, N = 140",9 (6.4%) Number (%) of Patients
same,Constipation,"[1]; 550 mg BID, N = 140",9 (6.4%) Number (%) of Patients
same,Cough,"[1]; 550 mg BID, N = 140",10 (7.1%) Number (%) of Patients
same,Depression,"[1]; 550 mg BID, N = 140",10 (7.1%) Number (%) of Patients
same,Dizziness,"[1]; 550 mg BID, N = 140",18 (12.9%) Number (%) of Patients
same,Dyspnea,"[1]; 550 mg BID, N = 140",9 (6.4%) Number (%) of Patients
same,Edema peripheral,"[1]; 550 mg BID, N = 140",21 (15.0%) Number (%) of Patients
same,Fatigue,"[1]; 550 mg BID, N = 140",17 (12.1%) Number (%) of Patients
same,Insomnia,"[1]; 550 mg BID, N = 140",10 (7.1%) Number (%) of Patients
same,Muscle spasms,"[1]; 550 mg BID, N = 140",13 (9.3%) Number (%) of Patients
same,Nasopharyngitis,"[1]; 550 mg BID, N = 140",10 (7.1%) Number (%) of Patients
same,Nausea,"[1]; 550 mg BID, N = 140",20 (14.3%) Number (%) of Patients
same,Pruritus,"[1]; 550 mg BID, N = 140",13 (9.3%) Number (%) of Patients
same,Pyrexia,"[1]; 550 mg BID, N = 140",9 (6.4%) Number (%) of Patients
same,Rash,"[1]; 550 mg BID, N = 140",7 (5.0%) Number (%) of Patients
same,TEAE ascites,[1]; first study,11.4%
same,TEAE diarrhea,[1]; first study,10.7%
same,TEAE dizziness,[1]; first study,12.9%
same,TEAE fatigue,[1]; first study,12.1%
same,TEAE headache,[1]; first study,10%
same,TEAE nausea,[1]; first study,14.3%
same,TEAE peripheral edema,[1]; first study,15%
same,early study discontinuation due to adverse reactions,[1]; in vivo,6%
same,"subjects improved among those entering with asterixis scores of 1, 2, or 3",[2]; 67 subjects,64.2%
same,subjects with 1-grade asterixis improvement,[2]; 67 subjects,50.7%
same,subjects with 2-grade asterixis improvement,[2]; 67 subjects,6.0%
same,subjects with 3-grade asterixis improvement,[2]; 67 subjects,7.5%
same,"subjects with worsening asterixis, continuing rifaximin",[2]; 70 subjects,8.6%
same,"subjects improved among those entering with Conn scores of 1, 2, or 3",[2]; 84 subjects,64.3%
same,subjects with 1-grade Conn improvement,[2]; 84 subjects,56.0%
same,subjects with 2-grade Conn improvement,[2]; 84 subjects,8.3%
same,subjects improved in asterixis grade among those entering with grade ≧1,[2]; 99 subjects,58.6%
same,subjects improved to Conn score 0 among those entering with Conn ≧1,[2]; 118 subjects,62.2%
same,"subjects with worsening asterixis, new rifaximin",[2]; 196 subjects,6.1%
same,subjects with Conn worsening by 1 or 2 grades,[2]; 266 subjects,9.0%
same,subjects with improvements in Conn scores at last visit,[2]; 266 subjects,20.3%
same,subjects with improvements in asterixis scores,[2]; 266 subjects,16.2%
same,subjects with mental status maintained or improved,[2]; 266 subjects,91%
same,subjects with neuromotor symptoms maintained,[2]; 266 subjects,83.3%
same,subjects with no change in Conn score at last visit,[2]; 266 subjects,70.7%
same,subjects with no change in asterixis at last visit,[2]; 266 subjects,77.1%
same,subjects with improvements in asterixis grade,[2]; all rifaximin experience,17.3%
same,subjects with maintenance or improvements in asterixis grades,[2]; all rifaximin experience,> 90%
same,subjects with improvements in Conn score,[2]; [7],21.1%
same,subjects with no change in Conn score,[2]; [7],65.5%
same,subjects with no change in asterixis grade,[2]; [7],75.2%
same,subjects with maintenance or improvement in Conn scores,"[2]; all rifaximin experience, up to 840 days",> 85%
same,Cmax,clinical,< 4 ng/mL
same,AUC,clinical; 550 mg,12.3 ng·h/mL
same,inhibition of CYP3A4,CYP3A4 [3],did not inhibit
same,subjects hospitalized due HE episodes,[4]; in vivo,59 subjects
same,subjects hospitalized for any cause,[4]; in vivo,133 of 266
same,HE-caused hospitalization rate,[4]; second study,0.29 event/PEY
same,Number of subjects in each level of change from baseline in asterixis grade,"[5]; Baseline to EOT, level: r10 −2, r11 −1, r12 0, r13 1, r14 2, r15 3, r16 4",18 (12.9%) n (%)
same,Probability of no increase in asterixis grade,[5]; [8],1.0000
same,Probability of no increase in asterixis grade,[5]; [9],0.9048
same,Probability of no increase in asterixis grade,[5]; [10],0.8499
same,Probability of no increase in asterixis grade,[5]; [11],0.7910
same,Probability of no increase in asterixis grade,[5]; [12],0.7637
same,Probability of no increase in asterixis grade,[5]; treatment interval ≧168 days,0.7534
same,"subjects with changes in asterixis grade of 1, 2, 3, or 4",[5]; baseline to end of treatment,11.6%
same,"subjects with changes in asterixis grade of −2, −1, and 0",[5]; baseline to end of treatment,88.5%
same,"prevention of worsening of asterixis grade, times versus placebo",[5]; in vivo,1.92 times
same,reduction in risk of worsening of asterixis,[5]; in vivo,35%
same,subjects with increases in asterixis grade,[5]; in vivo,32 of 140
same,time to first increase in Asterixis grade vs placebo (FIG. 5),[5]; in vivo,increased time to the first increase in Asterixis grade
same,Cumulative number of events (increase in asterixis grade),[5]; [8],13
same,Event probability (increase in asterixis grade during the treatment interval),[5]; [8],0.10
same,Number of events (increase in asterixis grade),[5]; [8],13
same,Cumulative number of events (increase in asterixis grade),[5]; [9],20
same,Event probability (increase in asterixis grade during the treatment interval),[5]; [9],0.06
same,Number of events (increase in asterixis grade),[5]; [9],7
same,Cumulative number of events (increase in asterixis grade),[5]; [10],27
same,Event probability (increase in asterixis grade during the treatment interval),[5]; [10],0.07
same,Number of events (increase in asterixis grade),[5]; [10],7
same,Cumulative number of events (increase in asterixis grade),[5]; [11],30
same,Event probability (increase in asterixis grade during the treatment interval),[5]; [11],0.03
same,Number of events (increase in asterixis grade),[5]; [11],3
same,Cumulative number of events (increase in asterixis grade),[5]; [12],31
same,Event probability (increase in asterixis grade during the treatment interval),[5]; [12],0.01
same,Number of events (increase in asterixis grade),[5]; [12],1
same,Cumulative number of events (increase in asterixis grade),[5]; treatment interval ≧168 days,32
same,Event probability (increase in asterixis grade during the treatment interval),[5]; treatment interval ≧168 days,0.03
same,Number of events (increase in asterixis grade),[5]; treatment interval ≧168 days,1
same,effect on HE grade,patients with HE,significant improvement in overall HE grade
same,effect on blood ammonia,patients with HE,statistically significant blood ammonia reduction; also recorded: lowers ammonia levels
same,effect on blood ammonia,patients with HE; listed as Rifaximin,decreased blood ammonia
same,effect on HE grade,patients with HE; listed as Rifaximin,improvement in HE grade
same,CYP3A4 induction in vivo / midazolam exposure,CYP3A4 [6],only slightly reduced exposure; also recorded: weak inducer of CYP3A4
same,effect on epithelial cells,epithelial cells,resistant to bacterial colonization and internalization
